Columns and labels:
caspase-2 = biological target: T1, caspase-2 (Homo sapiens, UniProt P42575); conditions: cell-permeable peptide; cited from earlier work
T1 sequence (P42575 1-452): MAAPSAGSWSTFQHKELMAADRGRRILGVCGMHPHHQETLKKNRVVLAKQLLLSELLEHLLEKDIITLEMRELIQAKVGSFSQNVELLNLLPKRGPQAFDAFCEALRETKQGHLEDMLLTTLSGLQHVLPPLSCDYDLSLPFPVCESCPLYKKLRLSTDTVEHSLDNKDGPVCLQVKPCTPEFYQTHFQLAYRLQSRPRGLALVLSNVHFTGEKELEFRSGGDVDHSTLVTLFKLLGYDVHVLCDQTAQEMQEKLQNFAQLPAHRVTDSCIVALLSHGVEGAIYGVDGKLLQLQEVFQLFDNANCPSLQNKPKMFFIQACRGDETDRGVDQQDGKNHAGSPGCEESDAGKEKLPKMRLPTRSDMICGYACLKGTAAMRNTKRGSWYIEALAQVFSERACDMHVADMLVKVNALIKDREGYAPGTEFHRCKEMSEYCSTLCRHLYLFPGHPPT

[1] = system: human caspases (including caspase-2); conditions: broad-spectrum (pan-caspase) inhibitor; cited from earlier work
[2] = system: other classes of proteases or other enzymes or receptors other than caspases; conditions: selectivity; cited from earlier work
[3] = system: 3T3-L1 cells differentiated in adipocytes; assay: Palmitate-induced lipoapoptosis (caspase 3/7 activity, ApoTox-Glo Triplex Assay) in 3T3-L1 adipocytes; type: cell-based; conditions: palmitate 1 mM, 48 hours, inhibitor 20 uM, FIG. 4G
Description: FIG. 4G. […] Left panel: apoptosis (caspase 3/7 activity) in adipocytes treated with Palmitate 1 mM, 48 hour±caspase-2 inhibitor, VDVAD-FMK 20 uM.
3T3-L1 cells were differentiated in adipocytes as previously described (Zebisch et al., 2012), and differentiation confirmed with Oil red staining. Adipocytes were treated with palmitate 1 mM with or without caspase-2 inhibitor Z-VDVAD-FMK (R&D Systems), 20 uM, for 48 hours. Apoptosis was measured using ApoTox-Glo Triplex Assay (Promega).

Compound: VDVAD [available as a fluoromethylketone derivative]
- inhibition of caspase-2 activity (caspase-2): irreversibly inhibits

Compound: C[C@H](NC(=O)C(=O)Nc1ccccc1C(C)(C)C)C(=O)N[C@@H](CC(=O)O)C(=O)COc1c(F)c(F)cc(F)c1F [IDN-6556]
- activity against caspases [1]: activity against all tested human caspases (including caspase-2)
- inhibition of non-caspase proteases, enzymes or receptors [2]: no inhibition

Compound: Z-VDVAD-FMK
- effect on palmitate-induced lipoapoptosis in adipocytes [3]: prevented
